This note sets out measurements from US20110166206A1, “UBIQUILIN REGULATION OF PRESENILIN ENDOPROTEOLYSIS, AND SUPPRESSION OF POLYGLUTAMINE-INDUCED TOXICITY IN CELLS” (UNIVERSITY OF MARYLAND BIOTECHNOLOGY INSTITUTE, priority 2005, published 2011).

For one data set, the system named is PS2 NTF. In words: Cycloheximide time course of PS2 fragment production in PS2 inducible cells with or without UBQLN1 transfection. The class given is cell-based, human. On the procedure: (A) Time course experiment using ponA-induced PS2 cell line cultures transfected with or without UBQLN1 expression plasmids were treated with […] cycloheximide for 0-6 hours. Equal amounts of protein lysate were separated by 8.5% SDS-PAGE and subsequently immunoblotted with anti-UBQLN antibody. Transfected cells reveal a 4-fold increase in UBQLN1 levels. Next, the protein lysates were immunoblotted using anti-PS2 NH,-terminal antibody to detect FL and NTF PS2 levels, as indicated. Note both FL PS2 turnover and NTF production levels in transfected versus untransfected cell lysates.
(B) Same experiment as (A) except FL PS expression was not induced using PonA.
(C) Graphs showing relative levels of PS2 polypeptides in PS2 inducible cell lysates after densitometric analysis of the immunoreactive bands shown in panels A and B. The levels were calculated by normalization of the signals relative to that in Lane 1. The Microsoft Excel program was used to produce a best-fit line for each graph. […] However, this is completely opposite of NTF levels. UBQLN not only decreases NTF levels at every time-point in the experiment, but it also slows the rate of NTF production, as determined by measuring the slope of each line.
HeLa and HEK293 cells were grown in DMEM supplemented with 10% FBS. PS1 and S2 inducible cell lines were generated by transfection of the pERV-expressing HEK293 cell line (Stratgene, IaIolla, Calif.) with FL human PS2 cDNA under the control of ponasteroneA (PonA)-inducible cassette in plasmid pEGSH (Stratagene). Stable integration of the pEGSH plasmid was achieved by selection for hygromycin resistance. PS expression was induced by adding PonA (final cont. 10 pM) to the medium. For proteasome inhibition studies, cultures were treated with 40 uM MG132 (Calbiochem, San Diego, Calif.) for time periods as indicated. […]
To this end, protein synthesis was inhibited using cyclohexamide (CHX) and PS fragment production was monitored over a six-hour time period in UBQLN transfected and untransfected lysates that were either induced or uninduced for PS expression. […]

The subject of data set [1] is GFP-HttQ74-3 and GFP-HttQ28-2 HeLa cell lines. Description: Ubiquilin-1 transfection of stable GFP-HttPolyQ HeLa cell lines, serum withdrawal-induced cell death and aggregates. The class given is cell-based. An excerpt:
FIG. 11. […] The 28Q-2 and 74Q-3 were used in most of our studies. The asterisk corresponds to a non-specific band that is detected by the GFP antibody. • B. Representative fluorescent images of GFP-HttPolyQ(28)-2 and GFP-HttPolyQ(74)-3 stable cell lines. Note that GFP fluorescence is located in both the cytoplasm and the nucleus, but that compact foci are only seen in the GFP-HttPolyQ(74)-3 cells. • C. Cells expressing expanded polyglutamine proteins are more sensitive to H2O2. The GFP-HftPolyQ(28)-2 and GFP-HttPolyQ(74)-3 stable cell lines were exposed to 200 μM concentration of H2O2 and after 5 hr, the cells were stained with both Hoechest 33342 and PI. The cells stained by PI represent the dead cells whereas all the nuclei are identified by Hoechst 33342 staining. • D. Graph showing percentage of cell death after the cells were exposed to different concentrations of H2O2 for 5 hr. Percentages of cell death calculated by determining the ratio of PI-positively stained cells to that of Hoechst-stained cells. There was a significant difference in cell death upon exposure of GFP-HttPolyQ(28)-2 and GFP-HttPolyQ(74)-3 to 100 μM, 150 μM, or 200 μM of H2O2 (p<0.001). • E. Representative images showing that overexpression of ubiquilin-1 protects GFP-HttPolyQ(74)-3 expressing cells against serum withdrawal-induced cell death. Cells stably expressing GFP-HttPolyQ(28) or GFP-HttPolyQ(74) were transiently transfected with or without (mock transfection) plasmids encoding ubiquilin-1 by the calcium phosphate coprecipitation method. […] Cell death was quantified as described in D above. • H. Representative images showing that ubiquilin-1 overexpression protects GFP-HttPolyQ(74)-3 expressing cells against serum withdrawal-induced cell death, in a dose-dependent manner. […] After 5 hours of serum withdrawal and 30 hours following the transfection, the amount of cell death was analyzed by staining cells with both PI and Hoechst 33342. • I. Graph showing quantification of cell death in the experiments described in H. • J. Immunoblot showing overexpression of increasing amounts of ubiquilin-1 cDNA in the GFP-HttPolyQ(74)-3 cell line reduces GFP-aggregates trapped in the stacking gel after SDS-PAGE. […] Bottom panel: Quantification of the spot intensity determined in three independent experiments.
HeLa cells were grown in DME supplemented with 10% FBS. […] Stable cell lines were identified by GFP-fluorescence.
Cell death was monitored either through examination of the nuclear morphology observed after Hoechst 33342 (1 μg/ml) staining, or through detecting the membrane selective permeability following 3 μM of propidium iodide (PI) staining. […]

As for “UBQLN1: PS-interacting protein ubiquilin-1, overexpressed in cells from a cDNA expression plasmid”, in the data set on PS2 NTF (PS induced and uninduced cells treated with CHX), the “rate of PS2 NTF production” value is reported as “slows the rate of PS2 NTF production”. In addition, in the data set with PS2 NTF (transfected vs untransfected, UBQLN immunoblot), the “UBQLN1 overexpression level in transfected lysates” value is reported as 4 fold. For the same substance, in data set [1] (GFP-HttPolyQ(74)-3 cells, 2, 3 and 6 μg vs mock or 1 μg), the “spot intensity of GFP-aggregates, filter retardation assay” value is listed as “significantly lower”. Moreover, the “cell death, ubiquilin-1-transfected vs mock-transfected” value in data set [1] (GFP-HttQ28-2 cell line) was “no significant difference in cell death”. In addition, the “protection against cell death with increasing amounts of plasmid” value in data set [1] (GFP-HttQ74-3 cell line) is recorded as “dose-dependent protection against cell death”. Further, the “reduction in cell death” value in data set [1] (GFP-HttQ74-3 cell line, 24 hours after transfection and serum deprivation, vs untransfected) is reported as “approximately 50%”.
